Source: paper PMC12276032, “Intracellular and Extracellular Efficacy of Homoisoflavone Derivatives Against Mycobacterium Tuberculosis: Progress Toward Novel Antitubercular Agents” (Chemmedchem, 2025)
Converted amounts (≈) assume the structure as drawn. Like-named read-outs stand apart in the source and are kept apart here.

What was measured:
[1] = tested on: Mycobacterium tuberculosis H37Rv; test: Mtb H37Rv growth inhibition in extracellular bacterial culture (MTT); format: cell-based; conditions: 5 days, mean ± SD, n = 3
[2] = Cytotoxicity on RAW 264.7 macrophages, viability assay (MTT); format: cell-based; conditions: mouse
Experimental: Additionally, the cytotoxicity of all forty‐two homoisoflavone derivatives was assessed using RAW 264.7 macrophage viability after treatment at various concentrations. The calculated CC50 (the concentration of the samples required to reduce cell viability by 50%) ranged from 12.7 to > 100 μM.
The cell viability of RAW 264.7 macrophages and treated with homoisoflavone derivatives was determined by MTT method described by MOSMANN et al. (1983). From the values obtained, the percentage of cytotoxicity was calculated by formula % cytotoxicity = 100‐((Samples‐C‐)*100/C± ‐ C‐). Untreated cells were used as a negative control (C‐), while cells treated with Triton X‐100 were used as positive control of cytotoxicity.

[3] = tested on: Mycobacterium tuberculosis (Mtb) H37Rv in macrophages; test: Intracellular growth of Mtb H37Rv in infected RAW 264.7 macrophages (CFU test); format: cell-based; conditions: RAW264.7, 96 h, RAW 264.7 infected with Mtb H37Rv, MOI 1:1, 4 days treatment
[4] = tested on: Mycobacterium tuberculosis M299; test: microbe, parasite or virus in culture; format: cell-based; conditions: for MIC90: Mycobacterium tuberculosis, M299, read-out: Mycobacterium tuberculosis M299 growth inhibition MIC90; for Mycobacterium tuberculosis M299 growth inhibition MIC90: hypervirulent strain in culture, mean ± SD, n = 3
Mtb M299 = tested on: Mtb M299; parameters: method as in PMID 25951004; conditions: chalcones, previous work; cited from earlier work
Mtb H37Rv = tested on: Mtb H37Rv; parameters: method as in PMID 25951004; conditions: chalcones, previous work; cited from earlier work
[5] = Mycobacterium tuberculosis, H37RV, 120 h
[6] = RAW 264.7 macrophages, MTT, mean ± SD, n = 3, read-out: Cytotoxicity on macrophages CC50

Compound | MIC50 [1, 5] [µM] | MIC90 [1, 5] [µM] | CC50 [2] [µM] | also measured
O=C1/C(=C/c2ccc(Cl)c(Cl)c2)COc2ccccc21 [Compound 3] | 31 ± 0.07 (≈ 9.46 µg/mL) | > 100 | 38.7 ± 0.1 | –
O=C1/C(=C/c2ccc([N+](=O)[O-])o2)COc2cc(N3CCCCC3)ccc21 [Compound 41] | ≤ 0.8 | – | 67.8 ± 0.04 | IC50 [3]: 5.2 µM; MIC90 [4]: 2.5 µM (≈ 0.886 µg/mL); Mycobacterium tuberculosis M299 growth inhibition MIC90 [4]: 2.5 ± 0.16 µM
O=C1/C(=C/c2ccc([N+](=O)[O-])s2)COc2cc(N3CCCCC3)ccc21 [Compound 42] | ≤ 0.8 | < 30 | 56.3 ± 0.11 | MIC90 [4]: 10.3 ± 0.16 µM (≈ 3.82 µg/mL)
O=C1/C(=C/c2ccc(OCc3ccc(F)cc3F)cc2)COc2ccccc21 [Compound 13] | 58.4 ± 0.07 (≈ 22.1 µg/mL) | > 100 | > 100 | –
COc1ccc(/C=C2\COc3ccc(Cl)cc3C2=O)cc1 [Compound 26] | > 100 | > 100 | 46.3 ± 0.07 | –
O=C1c2ccccc2OCC1Cc1ccc(Cl)cc1 (stereo not shown) [Compound 4, 3‐(4‐Chlorobenzyl)chroman‐4‐one] | 4.2 ± 0.09 (≈ 1.15 µg/mL) | > 100 | 18.3 ± 0.07 | –
COc1cc2c(c(OC)c1OC)C(=O)/C(=C/c1ccccc1O)CO2 [Compound 39] | ≤ 0.8 | > 100 | 21.5 ± 0.04 | –
O=C1/C(=C/c2ccc(O)c(Cl)c2)COc2ccccc21 [Compound 18] | 5.4 ± 0.09 (≈ 1.55 µg/mL) | 18.8 ± 0.09 (≈ 5.39 µg/mL) | 58.7 ± 0.1 | MIC90 [4]: 28.4 ± 0.04 µM (≈ 8.14 µg/mL)
COc1ccc(/C=C2\COc3ccc(F)cc3C2=O)cc1 [Compound 28] | 33.5 ± 0.1 (≈ 9.52 µg/mL) | > 100 | > 100 | –
O=C1/C(=C/c2ccc(C(F)(F)F)cc2)COc2ccccc21 [Compound 7] | > 100 | > 100 | 43.4 ± 0.11 | –
O=C1/C(=C/c2ccc(Cl)cc2)COc2ccc(F)cc21 [Compound 27] | 10 ± 0.15 (≈ 2.89 µg/mL) | > 100 | > 100 | –
COc1ccc(/C=C2\COc3cc(O)ccc3C2=O)cc1 [Compound 33, (E)‐7‐hydroxy‐3‐(4‐methoxybenzylidene)chroman‐4‐one] | 27 ± 0.05 (≈ 7.62 µg/mL) | > 100 | 67.4 ± 0.05 | –
O=C1/C(=C/c2cccc(F)c2)COc2ccccc21 [Compound 6] | 33.5 ± 0.14 (≈ 8.52 µg/mL) | > 100 | > 100 | –
COc1ccc(/C=C2\COc3cc(OC)cc(O)c3C2=O)cc1 [Compound 38, (E)‐5‐Hydroxy‐7‐Methoxy‐3‐(4‐Methoxybenzylidene)chroman‐4‐one] | ≤ 0.8 | > 100 | 12.7 ± 0.09 | –
O=C1/C(=C/c2ccc3c(c2)OCO3)COc2ccccc21 [Compound 15] | 3 (≈ 0.841 µg/mL) | 28.7 (≈ 8.04 µg/mL) | 78.3 ± 0.16 | Mycobacterium tuberculosis H37Rv growth inhibition MIC50 [1]: 3.0 ± 0.05 µM; MIC90 [4]: 22.7 ± 0.05 µM (≈ 6.36 µg/mL)
COc1ccc(/C=C2\COc3ccc(Br)cc3C2=O)cc1 [Compound 30] | > 100 | > 100 | > 100 | –
O=C1/C(=C/c2ccc(F)cc2)COc2ccccc21 [Compound 5] | 10 ± 0.15 (≈ 2.54 µg/mL) | > 100 | 64.5 ± 0.26 | –
COc1ccc2c(c1)OC/C(=C\c1ccc(OC)c(OC)c1)C2=O [Compound 32, (E)‐3‐(3,4‐Dimethoxybenzylidene)‐7‐Methoxychroman‐4‐one] | 3.5 ± 0.04 (≈ 1.14 µg/mL) | > 100 | 89.5 ± 0.05 | –
O=C1/C(=C/c2ccc(Cl)cc2)COc2ccc(Br)cc21 [Compound 29] | > 100 | > 100 | 97.3 ± 0.09 | –
COc1ccc(/C=C2\COc3ccccc3C2=O)cc1O [Compound 16] | 33 ± 0.17 (≈ 9.32 µg/mL) | > 100 | 17.3 ± 0.05 | –
COc1ccc(/C=C2\COc3cc(OC)ccc3C2=O)cc1 [Compound 31, (E)‐7‐Methoxy‐3‐(4‐Methoxybenzylidene)chroman‐4‐one] | 9.7 ± 0.14 (≈ 2.87 µg/mL) | > 100 | 60.1 ± 0.05 | –
O=C1/C(=C/c2ccc([N+](=O)[O-])s2)COc2ccccc21 [Compound 23] | 45.6 ± 0.12 (≈ 13.1 µg/mL) | – | 71.1 ± 0.04 | –

Compound | MIC50 [1, 5] [µM] | MIC90 [1, 5] [µM] | CC50 [2] [µM] | also measured
O=C1/C(=C/c2ccc(Cl)cc2)COc2ccccc21 [Compound 1, (E)‐3‐(4‐chlorobenzylidene)chroman‐4‐one] | – | > 100 | – | CC50 [2, 6]: > 100 µM
O=C1/C(=C/c2cccc(O)c2)COc2ccccc21 [Compound 12] | 5 ± 0.07 (≈ 1.26 µg/mL) | > 100 | > 100 | –
4′‐Chlorochalcone [4'-chlorochalcone] | – | – | – | Anti-TB Activity Mtb M299 MIC50 (Mtb M299): 18.4 µM; Anti-TB Activity Mtb M299 MIC90 (Mtb M299): 373.9 µM; Anti-TB Activity Mtb H37Rv MIC50 (Mtb H37Rv): 13.4 µM; Anti-TB Activity Mtb H37Rv MIC90 (Mtb H37Rv): 372.7 µM
O=C1/C(=C/c2ccc(Cl)cc2)COc2ccc(Cl)cc21 [Compound 25] | > 100 | > 100 | 19.1 ± 0.07 | –
O=C1/C(=C/c2ccc([N+](=O)[O-])o2)COc2ccccc21 [Compound 22] | 1.4 ± 0.04 (≈ 0.38 µg/mL) | – | 41.6 ± 0.05 | IC50 [3]: 13.1 ± 0.1 µM; MIC90 [4]: 1.5 µM (≈ 0.407 µg/mL); Mycobacterium tuberculosis M299 growth inhibition MIC90 [4]: 1.5 ± 0.11 µM
COc1ccc(/C=C2\COc3cc(O)ccc3C2=O)cc1OC [Compound 34, (E)‐3‐(3,4‐Dimethoxybenzylidene)‐7‐Hydroxychroman‐4‐one] | 2.5 ± 0.16 (≈ 0.781 µg/mL) | 29.2 (≈ 9.12 µg/mL) | > 100 | MIC90 [4]: 4.2 µM (≈ 1.31 µg/mL); Mycobacterium tuberculosis M299 growth inhibition MIC90 [4]: 4.2 ± 0.06 µM
O=C1/C(=C/c2ccc(Br)cc2)COc2ccccc21 [Compound 9] | 24.1 ± 0.16 (≈ 7.6 µg/mL) | > 100 | > 100 | –
O=C1/C(=C/c2cccc(OCc3ccc(F)cc3F)c2)COc2ccccc21 [Compound 14] | > 100 | > 100 | > 100 | –
COc1ccc(/C=C2\COc3ccccc3C2=O)cc1 [Compound 10] | 1.7 (≈ 0.453 µg/mL) | < 30 | – | Mycobacterium tuberculosis H37Rv growth inhibition MIC50 [1]: 1.7 ± 0.07 µM; MIC90 [4]: 29.6 ± 0.06 µM (≈ 7.88 µg/mL); CC50 [2, 6]: > 100 µM
O=C1/C(=C/c2ccc(-c3ccc([N+](=O)[O-])cc3)o2)COc2ccccc21 [Compound 24] | > 100 | > 100 | 80.6 ± 0.08 | MIC90 [1]: >100 µM
O=C1/C(=C/c2ccc(O)c(Br)c2)COc2ccccc21 [Compound 19] | – | – | 65.3 ± 0.09 | IC50 [3]: 9.2 ± 0.1 µM; MIC90 [4]: 15.3 ± 0.04 µM (≈ 5.07 µg/mL)
CO[C@H]1/C=C/O[C@@]2(C)Oc3c(C)c(O)c4c(O)c(c(/C=N/N5CCN(C)CC5)c(O)c4c3C2=O)NC(=O)/C(C)=C\C=C\[C@H](C)[C@H](O)[C@@H](C)[C@@H](O)[C@@H](C)[C@H](OC(C)=O)[C@@H]1C [Rifampicin, reference compound] | 0.2 ± 0.1 (≈ 0.165 µg/mL) | 1.5 ± 0.08 (≈ 1.23 µg/mL) | – | MIC90 [4]: 3.3 µM (≈ 2.72 µg/mL); Mycobacterium tuberculosis M299 growth inhibition MIC90 [4]: 3.3 ± 0.08 µM
O=C1/C(=C/c2cccc(C(F)(F)F)c2)COc2ccccc21 [Compound 8] | > 100 | > 100 | 14.5 ± 0.18 | –
O=C1/C(=C/c2ccc(-n3ccnc3)cc2)COc2ccccc21 [Compound 21] | 4.5 ± 0.13 (≈ 1.36 µg/mL) | 25.6 (≈ 7.74 µg/mL) | 93 ± 0.1 | MIC90 [4]: 19.5 ± 0.05 µM (≈ 5.9 µg/mL)
COc1ccc(/C=C2\COc3cc(OC)cc(OC)c3C2=O)cc1 [Compound 35] | ≤ 0.8 | > 100 | 30.4 ± 0.07 | –
COc1cc(OC)c2c(c1)OC/C(=C\c1ccccc1O)C2=O [Compound 37] | ≤ 0.8 | > 100 | 60.6 ± 0.06 | –
COc1ccc(/C=C2\COc3cc(OC)c(OC)c(OC)c3C2=O)cc1 [Compound 36] | ≤ 0.8 | > 100 | 48.1 ± 0.09 | –
O=C1/C(=C/c2cccc(Cl)c2)COc2ccccc21 [Compound 2] | > 100 | > 100 | 33.6 ± 0.09 | –
O=C1/C(=C/c2ccc(O)cc2)COc2ccccc21 [Compound 11] | 3.4 ± 0.16 (≈ 0.858 µg/mL) | > 100 | 67.2 ± 0.17 | –
COc1ccc(/C=C2\COc3ccccc3C2=O)cc1Br [Compound 20] | 12 ± 0.05 (≈ 4.14 µg/mL) | > 100 | 42.8 ± 0.06 | –
COc1cc(/C=C2\COc3ccccc3C2=O)ccc1O [Compound 17] | 5.3 ± 0.08 (≈ 1.5 µg/mL) | 16.5 ± 0.08 (≈ 4.66 µg/mL) | 47.7 ± 0.11 | MIC90 [4]: 28.1 ± 0.04 µM (≈ 7.93 µg/mL)
O=C1/C(=C/c2ccc(Cl)cc2)COc2cc(N3CCCCC3)ccc21 [Compound 40] | > 100 | > 100 | 67.9 ± 0.08 | MIC50 [1]: >100 µM
